Source: ChEMBL document CHEMBL1149557, “Induction of GRP78 by valproic acid is dependent upon histone deacetylase inhibition” (2007)
Blank lines part the entries; values can stand above or below the compound they belong to. The source made the active and inactive calls. No cut-off for these calls is given here.

Legend:
[1] = biological target: T1, Histone deacetylase (Homo sapiens) (UniProt Q13547+O15379+Q9UBN7+Q92769+Q9UQL6+Q8WUI4+Q9BY41+Q96DB2+P56524+Q9UKV0+Q969S8); test: Inhibition of HDAC in HEK293 cells assessed as increase in histone H4 acetylation at 2 mM after 48 hrs; assay type: cell-based
[2] = biological target: Glycogen synthase kinase-3 beta (Homo sapiens) (UniProt P49841); test: Inhibition of GSK3-beta at 2 mM relative to control
Chain of Glycogen synthase kinase-3 beta (Homo sapiens) (P49841 whole entry, looked up): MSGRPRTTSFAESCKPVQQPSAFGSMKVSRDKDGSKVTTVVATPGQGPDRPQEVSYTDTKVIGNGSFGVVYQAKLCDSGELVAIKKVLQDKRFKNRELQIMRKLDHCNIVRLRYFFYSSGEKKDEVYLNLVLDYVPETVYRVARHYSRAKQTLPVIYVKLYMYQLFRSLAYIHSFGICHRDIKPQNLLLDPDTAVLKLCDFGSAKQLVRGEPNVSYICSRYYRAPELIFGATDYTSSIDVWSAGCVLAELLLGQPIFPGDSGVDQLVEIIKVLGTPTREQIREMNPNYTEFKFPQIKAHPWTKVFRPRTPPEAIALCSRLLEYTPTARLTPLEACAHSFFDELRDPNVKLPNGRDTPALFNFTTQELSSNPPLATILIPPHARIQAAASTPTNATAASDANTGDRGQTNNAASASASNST

[3] = tested on: HEK293; test: Increase in protein disulfide isomerase level in HEK293 cells at 2 mM by immunoblot; assay type: functional, cell-based; conditions: Homo sapiens
[4] = tested on: HEK293; test: Increase in GRP78 protein level in HEK293 cells at 2 mM by immunoblot; assay type: functional, cell-based; conditions: Homo sapiens
[5] = tested on: HEK293; test: Increase in GRP78 protein level in HEK293 cells at 10 ug/mL by immunoblot; assay type: functional, cell-based; conditions: Homo sapiens
[6] = tested on: HEK293; test: Increase in protein disulfide isomerase level in HEK293 cells at 10 ug/ml by immunoblot; assay type: functional, cell-based; conditions: Homo sapiens
[7] = tested on: HEK293; test: Induction of GADD153/CHOP protein level in HEK293 cells by immunoblot; assay type: functional, cell-based; conditions: Homo sapiens
[8] = tested on: HEK293; test: Increase in GRP78 protein level in HEK293 cells at 600 nM by immunoblot; assay type: functional, cell-based; conditions: Homo sapiens
[9] = tested on: HEK293; test: Increase in protein disulfide isomerase level in HEK293 cells at 600 nM by immunoblot; assay type: functional, cell-based; conditions: Homo sapiens
[10] = tested on: HEK293; test: Increase in protein disulfide isomerase level in HEK293 cells at 1 mM by immunoblot; assay type: functional, cell-based; conditions: Homo sapiens
[11] = biological target: T1, Histone deacetylase (Homo sapiens); test: Inhibition of HDAC in HEK293 cells assessed as increase in histone H4 acetylation at 1 mM after 48 hrs relative to control; assay type: cell-based
[12] = tested on: HEK293; test: (§1) Increase in GRP78 protein level in HEK293 cells at 1 mM by immunoblot; assay type: functional, Homo sapiens
[13] = tested on: HEK293; test: as §1; assay type: functional, cell-based; conditions: Homo sapiens

Activity [1]: inactive | inhibition [2]: 126%
Compound: O=C(O)CCCc1ccccc1

Activity [1]: inactive | inhibition [2]: 2.9%
Compound: CCC(CC)C(=O)O
Activity [4]: inactive

Fold change [11]: 3.5 | inhibition [2]: 65.2%
Compound: CCCC(CCC)C(=O)O [VALPROIC ACID]
Activity [10]: Active | Fold change [12]: 2 | Activity [13]: Active

Second part, the compound before the results:

Compound: CC/C=C(\CCC)C(=O)O
Activity [1]: Active | inhibition [2]: 91.3% | Activity [3]: Active | Activity [4]: Active

Compound: CC(=O)N[C@H]1[C@@H](O[C@@H]2O[C@H](CC(O)[C@H]3O[C@@H](n4ccc(=O)[nH]c4=O)[C@H](O)[C@@H]3O)[C@H](O)[C@H](O)[C@H]2NC(=O)/C=C/CC(C)C)O[C@H](CO)[C@@H](N)[C@@H]1O (some centres undefined)
Activity [5]: Active | Activity [6]: Active | Activity [7]: Active

Compound: CC(/C=C/C(=O)NO)=C\[C@@H](C)C(=O)c1ccc(N(C)C)cc1
Activity [8]: Active | Activity [9]: Active
